Data as given in patent US3969529A, “Phenoxyacetic acid derivatives as diuretic agents” (C.E.R.P.H.A., priority 1969, dated 1976).

What was measured:
[1] = Acute toxicity in mice (mortality after 24 h intravenous, 48 h per os); conditions: mouse, in vivo; for LD50 at 24 h: intravenous, mortality after 24 hours; for LD50 at 48 h: po, per os, mortality after 48 hours
Protocol: The three compounds were administered in the usual way to lots of 10 male mice of average weight 20 gm. Mortality was assessed after 24 hours for the intravenous toxicity and after 48 hours for toxicity per os.

dogs = experiment: Tolerance in dogs, 5 days; format: in vivo; conditions: 50 to 200 mg/kg via the digestive tract, three dogs
mice = experiment: Diuretic activity in mice; format: in vivo
Protocol: The three compounds CE 3598, CE 3624, CE 3649 can be shown to be diuretic at doses of from 1 - 50 mg/kg for the first.

[2] = system: dogs anaesthetized with mebubarbital; experiment: Diuretic activity in dogs anaesthetized with mebubarbital; format: in vivo
Protocol: The doses injected were of the order of 5 - 30 mg/kg. In most cases, diuresis was decupled for more than 2 hours.
The size of the increase may reach 6 to 7 times, even 10 times, the base diuresis.
In the case of intraduodenal injection or administration per os, the active doses are relatively the same as by intravenous administration.

non-anaesthetized dogs = experiment: Diuretic activity in non-anaesthetized dogs after hydration; format: in vivo
Protocol: After hydration with 500 ml physiological water and calculation of the diuresis for 2 hours, CE 3624, CE 3649 and CE 3598 were administered per os at doses of from 10 to 100 mg/kg.
For CE 3624 at 20 mg/kg, the diuresis was quintupled for 3 hours; the same result was obtained at 10 mg/kg. For CE 3649, at the same doses, the diuresis was only doubled. The doses of CE 3598 administered per os were 25,50 and 100 mg/kg. The increase in diuresis was effective during the first hour, and still notable 3 hours after administration of the product.

[3] = per os, 10 to 100 mg/kg, after hydration with 500 ml physiological water

With `O=C(O)COc1ccc(C(=O)c2ccco2)c(Cl)c1Cl` [CE 3598, 4-(2-furylketo) 2,3-dichloro phenoxyacetic acid] as the compound, how does the LD50 at 24 h [1] read?
Its LD50 at 24 h is 450 mg/kg.

What about the LD50 at 48 h [1] of the same compound?
Its LD50 at 48 h is 1500 mg/kg.

What about the “symptoms indicating injurious activity” value (dogs) of the same compound?
The value was “no symptoms which would indicate any injurious activity”.

What about the diuretic activity (mice) of the same compound?
Its diuretic activity is “diuretic”.

What about the “increase in diuresis 2 hours after injection” value ([2]; intravenous) of the same compound?
Its value is “still perceptible”.

And the “dose provoking substantial diuretic action” value ([2]; intravenous, first 15 minutes)?
The value was ~10 mg/kg.

And the “size of the increase over base diuresis, maximum” value ([2]; intravenous, may reach even)?
The value was 10 times.

What about the “diuretic action in the first 15 minutes” value ([2]; intravenous, of the order of 10 mg/kg) of the same compound?
Its value is “substantial diuretic action”.

And the increase in diuresis (non-anaesthetized dogs; [3])?
Its increase in diuresis is “strongly increased”.

What about the “increase in diuresis 3 hours after administration” value (non-anaesthetized dogs; per os, 25, 50 and 100 mg/kg) of the same compound?
Its value is “still notable”.

What about the “increase in diuresis during the first hour” value (non-anaesthetized dogs; per os, 25, 50 and 100 mg/kg) of the same compound?
Its value is “effective”.

Which results are given for `O=C(O)COc1ccc(C(=O)c2cccs2)c(Cl)c1Cl` [CE 3624, 4-(2-thienylketo) 2,3-dichloro phenoxyacetic acid]?
LD50 at 24 h [1]: 225 mg/kg; LD50 at 48 h [1]: 1280 mg/kg; symptoms indicating injurious activity (dogs): no symptoms which would indicate any injurious activity; diuretic activity (mice): diuretic; increase in diuresis (mice; 25 mg/kg): doubled; increase in diuresis (mice; 50 mg/kg): quintupled; diuretic action ([2]; injected, of the order of 5 - 30 mg/kg): extremely substantial and precocious; duration of decupled diuresis ([2]; injected, of the order of 5 - 30 mg/kg, in most cases): more than 2 hours; increase in diuresis ([2]; injected, of the order of 5 - 30 mg/kg, in most cases, for more than 2 hours): decupled; increase in diuresis (non-anaesthetized dogs; per os, 10 mg/kg): quintupled; duration of quintupled diuresis (non-anaesthetized dogs; per os, 20 mg/kg): 3 h; increase in diuresis (non-anaesthetized dogs; per os, 20 mg/kg, for 3 hours): quintupled; increase in diuresis (non-anaesthetized dogs; [3]): strongly increased

What does the source list for `Cc1ccc(C(=O)c2ccc(OCC(=O)O)c(Cl)c2Cl)s1` [CE 3649, 4-[2(5-methylthienyl)keto] 2,3-dichloro phenoxyacetic acid]?
LD50 at 24 h [1]: 580 mg/kg; LD50 at 48 h [1]: 2900 mg/kg; symptoms indicating injurious activity (dogs): no symptoms which would indicate any injurious activity; diuretic activity (mice): diuretic; diuretic activity relative to CE 3624 (mice): a quarter of that of CE 3624; increase in diuresis (non-anaesthetized dogs; [3]): strongly increased; increase in diuresis (non-anaesthetized dogs; per os, same doses as CE 3624 (20 and 10 mg/kg)): only doubled
